{"source": "paper PMC7156629", "about": "“Fluorescence anisotropy assays for high throughput screening of compounds binding to lipid II, PBP1b, FtsW and MurJ” (Scientific Reports, 2020)", "key": {"[1]": {"experiment": "FA direct binding of antibiotics/compounds to NBD-lipid II probe", "conditions": "for Effect on FA signal of the NBD-lipid II probe (direct binding, no protein): increasing compound concentrations, probe 0.33 µM; for Kd: antibiotic binding to probe 0.33 µM, 10 mM Tris-HCl pH 7.5, 3% DMSO", "method": "Serial dilutions of each antibiotic in 10 mM Tris-HCl pH 7.5 and 3% DMSO were prepared in 384-well plates (30 µL) in triplicates. […] Blank samples without antibiotic were also prepared for background fluorescence estimation. […] The data were analysed as described above with [R] and [RL] are, respectively, the equilibrium concentration of the compound and the compound-probe complex."}, "[2]": {"molecular_target": "T1, FtsW (Escherichia coli, UniProt P0ABG4)", "T1 sequence (P0ABG4 whole entry)": "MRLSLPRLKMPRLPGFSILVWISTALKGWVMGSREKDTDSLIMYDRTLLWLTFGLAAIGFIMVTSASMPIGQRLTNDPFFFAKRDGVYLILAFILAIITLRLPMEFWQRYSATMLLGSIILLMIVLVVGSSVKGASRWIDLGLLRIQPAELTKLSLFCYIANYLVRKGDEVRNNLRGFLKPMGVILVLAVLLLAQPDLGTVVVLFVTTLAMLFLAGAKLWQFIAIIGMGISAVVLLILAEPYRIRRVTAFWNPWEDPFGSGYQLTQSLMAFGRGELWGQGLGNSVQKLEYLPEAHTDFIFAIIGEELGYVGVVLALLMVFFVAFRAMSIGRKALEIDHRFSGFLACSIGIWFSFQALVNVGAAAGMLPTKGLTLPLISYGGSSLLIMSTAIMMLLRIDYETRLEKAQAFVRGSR", "experiment": "FA direct binding of NBD-lipid II probe to FtsW", "set-up": "made in house; species or system E. coli", "conditions": "probe 0.33 µM", "method": "(§1) Fluorescent anisotropy (FA) experiments were performed in a black 384-well plate (Greiner Bio-One Polystyrene Non-Binding Flat Bottom) in triplicates. Serial dilutions of the protein (PBP1bγ, FtsW, FtsW-PBP3 or MurJ) in the appropriate buffer and the NBD-lipid II probe was added at a 0.33 µM final concentration. FtsN was used as a negative control under the same conditions. […] Fluorescence polarization (FP) and anisotropy (A) values were calculated using the equations FP = (I|| − G·I┴)/I||+ G·I┴) and A = 2· FP/3-FP respectively, where I|| is the fluorescence intensity of emitted light parallel to excitation, I┴ is the fluorescence intensity of emitted light perpendicular to excitation, and G is the correction factor that correct for instrument bias. The G factor is experimentally determined using the probe alone. […] For Kd determination, the fluorescence anisotropy data were analysed by nonlinear curve fitting to the Eq. (1) using GraphPad Prism 6.0 software[27].1 (A−Amin)/(Amax−Amin)=[RL]=(Kd+[R]+[L])−[(Kd+R]+[L])^2−4[R][L]]^1/2 Where A, Amin, Amax are the observed, the minimum and the maximum anisotropy, respectively, and [R], [L] and [RL] are the equilibrium concentration of the protein, the probe; and the protein-probe complex, respectively; Kd is the dissociation constant between the protein and the probe."}, "[3]": {"molecular_target": "T2, MurJ (Escherichia coli, UniProt P0AF16)", "T2 sequence (P0AF16 whole entry)": "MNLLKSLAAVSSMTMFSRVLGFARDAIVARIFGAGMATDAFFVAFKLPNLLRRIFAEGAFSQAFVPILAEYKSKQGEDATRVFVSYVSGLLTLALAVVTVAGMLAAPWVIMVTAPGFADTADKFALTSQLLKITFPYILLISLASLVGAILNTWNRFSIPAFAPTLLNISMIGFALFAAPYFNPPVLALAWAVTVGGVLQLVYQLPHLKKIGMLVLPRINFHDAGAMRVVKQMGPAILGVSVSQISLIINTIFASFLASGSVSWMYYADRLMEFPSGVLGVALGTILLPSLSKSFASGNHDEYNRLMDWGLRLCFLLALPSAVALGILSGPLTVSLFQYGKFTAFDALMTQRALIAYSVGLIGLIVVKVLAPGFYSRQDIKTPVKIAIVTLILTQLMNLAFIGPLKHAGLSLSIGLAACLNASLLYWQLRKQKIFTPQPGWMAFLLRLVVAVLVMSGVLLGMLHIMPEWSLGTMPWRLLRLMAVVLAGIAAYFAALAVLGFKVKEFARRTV", "experiment": "FA direct binding of NBD-lipid II probe to MurJ", "set-up": "made in house; species or system E. coli", "conditions": "probe 0.33 µM", "method": "as §1"}, "[4]": {"molecular_target": "T3, PBP1b (Escherichia coli, UniProt P02919)", "T3 sequence (P02919 46-844)": "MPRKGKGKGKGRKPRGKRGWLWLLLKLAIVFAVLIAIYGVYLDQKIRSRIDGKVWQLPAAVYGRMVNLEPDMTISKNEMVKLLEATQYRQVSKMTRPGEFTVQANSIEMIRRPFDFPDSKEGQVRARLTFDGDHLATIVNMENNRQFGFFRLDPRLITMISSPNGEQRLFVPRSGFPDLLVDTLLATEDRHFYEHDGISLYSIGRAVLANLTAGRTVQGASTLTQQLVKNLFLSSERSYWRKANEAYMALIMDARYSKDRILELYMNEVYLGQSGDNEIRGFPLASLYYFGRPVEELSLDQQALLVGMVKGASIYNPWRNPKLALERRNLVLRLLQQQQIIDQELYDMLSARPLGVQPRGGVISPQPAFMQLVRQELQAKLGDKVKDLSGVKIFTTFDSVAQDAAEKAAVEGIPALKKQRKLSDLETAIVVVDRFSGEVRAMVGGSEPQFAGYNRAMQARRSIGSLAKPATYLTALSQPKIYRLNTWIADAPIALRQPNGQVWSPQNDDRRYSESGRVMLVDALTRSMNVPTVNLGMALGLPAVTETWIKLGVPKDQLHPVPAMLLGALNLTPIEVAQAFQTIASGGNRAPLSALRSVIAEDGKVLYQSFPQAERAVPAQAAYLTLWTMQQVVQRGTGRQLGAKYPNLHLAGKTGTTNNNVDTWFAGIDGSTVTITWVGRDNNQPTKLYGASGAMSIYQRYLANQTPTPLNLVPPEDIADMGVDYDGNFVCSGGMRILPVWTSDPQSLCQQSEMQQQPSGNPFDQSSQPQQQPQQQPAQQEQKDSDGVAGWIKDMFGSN", "experiment": "Fluorescence anisotropy (FA) direct binding of NBD-lipid II probe to PBP1b", "set-up": "made in house; species or system E. coli", "conditions": "probe 0.33 µM", "method": "as §1"}, "[5]": {"molecular_target": "T4, FtsN (Escherichia coli, UniProt P29131)", "T4 construct": "made in house", "T4 sequence (P29131 whole entry)": "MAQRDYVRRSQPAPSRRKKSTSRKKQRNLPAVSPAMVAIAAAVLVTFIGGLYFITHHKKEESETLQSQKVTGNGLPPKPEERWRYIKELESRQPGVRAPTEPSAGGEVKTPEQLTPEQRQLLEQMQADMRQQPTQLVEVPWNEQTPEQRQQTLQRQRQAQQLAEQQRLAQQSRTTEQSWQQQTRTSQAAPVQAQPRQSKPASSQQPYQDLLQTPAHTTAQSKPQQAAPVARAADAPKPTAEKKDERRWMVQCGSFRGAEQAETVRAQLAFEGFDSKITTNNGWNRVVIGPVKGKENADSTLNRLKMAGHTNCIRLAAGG", "experiment": "FA direct binding of NBD-lipid II probe to FtsN (negative control)", "conditions": "FtsN as negative control", "method": "as §1"}, "[6]": {"molecular_target": "T5, FtsW-PBP3 (Escherichia coli, UniProt P0ABG4)", "T5 sequence (P0ABG4 whole entry)": "as the sequence (P0ABG4 whole entry) above", "T5 sequence (P0AD68 1-577, further chain)": "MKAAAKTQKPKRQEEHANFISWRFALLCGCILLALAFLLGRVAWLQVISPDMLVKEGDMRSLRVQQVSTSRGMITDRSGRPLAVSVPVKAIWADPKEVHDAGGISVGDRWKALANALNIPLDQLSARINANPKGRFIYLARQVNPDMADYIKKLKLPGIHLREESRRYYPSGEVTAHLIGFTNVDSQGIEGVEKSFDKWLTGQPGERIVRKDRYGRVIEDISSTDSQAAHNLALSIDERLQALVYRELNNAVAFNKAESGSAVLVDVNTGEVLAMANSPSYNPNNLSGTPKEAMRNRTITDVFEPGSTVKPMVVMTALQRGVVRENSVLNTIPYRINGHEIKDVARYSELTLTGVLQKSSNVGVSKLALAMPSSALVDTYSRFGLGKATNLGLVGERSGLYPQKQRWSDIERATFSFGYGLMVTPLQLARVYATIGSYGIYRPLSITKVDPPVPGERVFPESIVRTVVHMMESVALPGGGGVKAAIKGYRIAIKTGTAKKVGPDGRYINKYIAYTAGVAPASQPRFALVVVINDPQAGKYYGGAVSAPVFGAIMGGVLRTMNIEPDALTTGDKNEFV", "experiment": "FA direct binding of NBD-lipid II probe to FtsW-PBP3 complex", "set-up": "made in house; species or system E. coli", "conditions": "probe 0.33 µM", "method": "as §1"}, "[7]": {"conditions": "read-out: Kd (Lipid II), values from the literature, cited from earlier work"}, "[8]": {"system": "PBP1b", "set-up": "method as in Terrak, M. et al. Mol. Microbiol. 34 (1999)", "conditions": "ref Terrak, M. et al. Mol. Microbiol. 34 (1999), read-out: Km (Lipid II), values from the literature, cited from earlier work"}, "[9]": {"molecular_target": "T3, PBP1b", "experiment": "FA competition assay, PBP1b:NBD-lipid II", "conditions": "read-out: Ki values (unlabelled-Lipid II); displacement of probe (0.33 µM) from PBP1b (~1 µM)", "procedure": "(§2) Fixed concentrations of NBD-lipid II (0.33 µM) and proteins (~1 µM, 50–80% FA saturation[29]) were used. Serial dilutions of each antibiotic,unlabelled lipid II, or control compounds were prepared in 384-well plates in triplicates. Blank samples without proteins were also prepared for background fluorescence estimation. The mixtures (30 µL) were allowed to reach equilibrium for 20 min at room temperature with gentle shaking and the FA signals were recorded at 21 °C using an Infinite F Plex (Tecan, Männedorf, Switzerland) microplate reader equipped with polarization filters with excitation and emission wavelengths at 485 nm and 535 nm respectively. The data were plotted FA in millianisotropy units (mA) as a function of test compound concentration in µM. For the analysis of the completion data, fluorescence anisotropy values were fitted to the Eq. (3) using GraphPad Prism 6.0 software[30].3 [RL]=[R]/[1+Kd/[L](1+[C]/)Ki] Where [RL] is concentration of the receptor-probe complex; [R] is the concentration of the protein; [L] is the concentration of the probe; [C] is the concentration of test compound; Kd is the dissociation constant between the receptor and the probe (determined above); Ki is dissociation constant between the test compound and its target."}, "[10]": {"molecular_target": "T5, FtsW-PBP3", "experiment": "FA competition assay, FtsW-PBP3:NBD-lipid II", "conditions": "read-out: Ki values (unlabelled-Lipid II); displacement of probe (0.33 µM) from FtsW-PBP3 (~1 µM)", "procedure": "as §2"}, "[11]": {"molecular_target": "T2, MurJ", "experiment": "FA competition assay, MurJ:NBD-lipid II", "conditions": "read-out: Ki values (unlabelled-Lipid II); displacement of probe (0.33 µM) from MurJ (~1 µM)", "procedure": "as §2"}, "[12]": {"molecular_target": "MurJ", "set-up": "method as in Bolla, J. R. et al. Nat. Chem. 10 (2018)", "conditions": "native mass spectrometry, ref Bolla, J. R. et al. Nat. Chem. 10 (2018), read-out: Kd (Lipid II), values from the literature; cited from earlier work"}, "[13]": {"molecular_target": "T1, FtsW", "experiment": "FA competition assay, FtsW:NBD-lipid II", "conditions": "read-out: Ki values (unlabelled-Lipid II); displacement of probe (0.33 µM) from FtsW (~1 µM)", "procedure": "as §2"}, "[14]": {"conditions": "ref Lo, M. C. et al. J. Am. Chem. Soc. 122 (2000); read-out: IC50 (Lipid II), values from the literature; cited from earlier work"}}, "note": "“Also recorded” adds a separate entry of the source. Like-named read-outs stand apart in the source and are kept apart here.", "data": [{"compound": "C=C(C/C=C(\\C)CCC=C(C)C)CCC(C)(C)/C=C/CC/C(C)=C/CO[C@@H](COP(=O)(O)O[C@H]1O[C@H](C(N)=O)[C@@](C)(O)[C@H](OC(N)=O)[C@H]1O[C@@H]1O[C@H](CO[C@@H]2O[C@H](CO)[C@@H](O)[C@H](O)[C@H]2O)[C@@H](O[C@@H]2O[C@H](C)[C@@H](O[C@@H]3O[C@H](C(=O)NC4=C(O)CCC4=O)[C@H](O)[C@H](O)[C@H]3O)[C@H](O)[C@H]2NC(C)=O)[C@H](O)[C@H]1NC(C)=O)C(=O)O", "note": "[moenomycin A, Moenomycin A]", "values": [{"measurement": "Effect on FA signal of the NBD-lipid II probe (direct binding, no protein)", "setting": "[1]", "result": "did not significantly affect the FA signal"}, {"measurement": "Effect on FA signal of the NBD-lipid II probe (direct binding, no protein)", "setting": "[1]; listed as Moenomycin", "result": "no effect on the FA of the probe"}]}, {"compound": "CC(=O)N[C@H]1[C@H](O[C@H]2[C@H](O[C@H](C)C(=O)N[C@@H](C)C(=O)N[C@H](CCC(=O)N[C@@H](CCCCNc3ccc([N+](=O)[O-])c4nonc34)C(=O)N[C@H](C)C(=O)N[C@H](C)C(=O)O)C(=O)O)[C@@H](NC(C)=O)[C@@H](OP(=O)(O)OP(=O)(O)OC/C=C(/C)CC/C=C(/C)CC/C=C(/C)CC/C=C(/C)CC/C=C(/C)CC/C=C(/C)CC/C=C(/C)CC/C=C(/C)CC/C=C(\\C)CC/C=C(\\C)CCC=C(C)C)O[C@@H]2CO)O[C@H](CO)[C@@H](O)[C@@H]1O", "note": "[NBD-lipid II, Nitrobenzoxadiazole (NBD)-labelled Lipid II]", "values": [{"measurement": "Kd", "setting": "[2]", "result": "300 ± 100", "unit": "nM"}, {"measurement": "Kd", "setting": "[3]", "result": "1100 ± 300", "unit": "nM"}, {"measurement": "Kd", "setting": "[4]", "result": "500 ± 200", "unit": "nM"}, {"measurement": "Effect of FtsN on FA of the probe", "setting": "[5]", "result": "had no effect on the FA of the probe"}, {"measurement": "Kd", "setting": "[6]", "result": "300 ± 100", "unit": "nM"}]}, {"compound": "nisin (ITSISLCTPGCKTGALMGCNMKTATCHCSIHVSK; not fully specified; Lantibiotic nisin-A; UniProt P13068 24-57, looked up)", "values": [{"measurement": "Kd", "setting": "[1]", "result": "300 ± 100", "unit": "nM"}, {"measurement": "Effect on FA signal of the NBD-lipid II probe (direct binding, no protein)", "setting": "[1]", "result": "induced an increase of FA"}, {"measurement": "Kd", "setting": "[7]; ref 'T Hart, P. et al. Biochemistry 55 (2016)", "result": "14.6 to 50", "unit": "nM"}]}, {"compound": "CC(=O)N[C@H]1[C@H](O[C@H]2[C@H](O[C@H](C)C(=O)N[C@@H](C)C(=O)N[C@H](CCC(=O)N[C@@H](CCCCN)C(=O)N[C@H](C)C(=O)N[C@H](C)C(=O)O)C(=O)O)[C@@H](NC(C)=O)[C@@H](OP(=O)(O)OP(=O)(O)OC/C=C(/C)CC/C=C(/C)CC/C=C(/C)CC/C=C(/C)CC/C=C(/C)CC/C=C(/C)CC/C=C(/C)CC/C=C(/C)CC/C=C(\\C)CC/C=C(\\C)CCC=C(C)C)O[C@@H]2CO)O[C@H](CO)[C@@H](O)[C@@H]1O", "note": "[unlabelled lipid II, undecaprenyl-pyrophosphoryl-MurNAc(pentapeptide)-(beta-1,4)-GlcNAc]", "values": [{"measurement": "Km", "setting": "[8]; listed as Lipid II", "result": "1800 ± 800", "unit": "nM"}, {"measurement": "Km", "setting": "[8]; listed as lipid II", "result": "~2000", "unit": "nM"}, {"measurement": "Ki", "setting": "[9]", "result": "1400 ± 200", "unit": "nM"}, {"measurement": "Ki", "setting": "[10]", "result": "6.8 ± 1", "unit": "µM"}, {"measurement": "Ki", "setting": "[11]", "result": "4.6 ± 0.8", "unit": "µM"}, {"measurement": "Kd", "setting": "[12]", "result": 2900, "unit": "nM"}, {"measurement": "Effect on FA signal of the NBD-lipid II probe (direct binding, no protein)", "setting": "[1]", "result": "no direct effect on the FA of the probe"}, {"measurement": "Effect on FA signal of the NBD-lipid II probe (direct binding, no protein)", "setting": "[1]; listed as unlabeled lipid II", "result": "did not significantly affect the FA signal"}, {"measurement": "Ki", "setting": "[13]", "result": "5.9 ± 1.8", "unit": "µM"}]}, {"compound": "CN[C@H](CC(C)C)C(=O)N[C@H]1C(=O)N[C@@H](CC(N)=O)C(=O)N[C@H]2C(=O)N[C@H]3C(=O)N[C@H](C(=O)N[C@H](C(=O)O)c4cc(O)cc(O)c4-c4cc3ccc4O)[C@H](O)c3ccc(c(Cl)c3)Oc3cc2cc(c3O[C@@H]2O[C@H](CO)[C@@H](O)[C@H](O)[C@H]2O[C@H]2C[C@](C)(N)[C@H](O)[C@H](C)O2)Oc2ccc(cc2Cl)[C@H]1O", "note": "[Vancomycin, vancomycin]", "values": [{"measurement": "Kd", "setting": "[1]", "result": "300 ± 100", "unit": "nM"}, {"measurement": "Effect on FA signal of the NBD-lipid II probe (direct binding, no protein)", "setting": "[1]", "result": "induced an increase of FA"}, {"measurement": "Kd", "setting": "[7]; ref Münch, D. & Sahl, H.-G. Biochim. Biophys. Acta 1848 (2015)", "result": 500, "unit": "nM"}]}, {"compound": "CC1(C)S[C@@H]2[C@H](NC(=O)[C@H](N)c3ccccc3)C(=O)N2[C@H]1C(=O)O", "note": "[Ampicillin]", "values": [{"measurement": "Effect on FA signal of the NBD-lipid II probe (direct binding, no protein)", "setting": "[1]", "result": "no significant effect on the FA of the probe"}, {"measurement": "Effect on FA signal of the NBD-lipid II probe (direct binding, no protein)", "setting": "[1]; listed as ampicillin", "result": "do not bind to the probe"}]}, {"compound": "ramoplanin", "values": [{"measurement": "IC50", "setting": "[14]", "result": 300, "unit": "nM"}, {"measurement": "Kd", "setting": "[1]", "result": "230 ± 50", "unit": "nM"}, {"measurement": "Effect on FA signal of the NBD-lipid II probe (direct binding, no protein)", "setting": "[1]", "result": "induced an increase of FA"}]}, {"compound": "N[C@@H](Cc1c[nH]c2ccccc12)C(=O)O", "note": "[tryptophan]", "values": [{"measurement": "Effect on FA signal of the NBD-lipid II probe (direct binding, no protein)", "setting": "[1]", "result": "do not bind to the probe; also recorded: no significant effect on the FA of the probe"}]}]}
